Results on four molecules are retold here after PMC12846068, “Insights into Transport Function of the Murine Organic Anion-Transporting Polypeptide OATP1B2 by Comparison with Its Rat and Human Orthologues” (Toxics, 2025).

Where two headings read alike, the source gives them in different places.

The Km is the substrate concentration at which the rate is half of its maximum.

For data set [1], the target named is T1, mOATP1B2 (Mus musculus, UniProt Q9JJL3).
T1 construct: The full-length mOATP1B2 and rOATP1B2 consist of 689 and 678 amino acids
T1 sequence (Q9JJL3 1-689): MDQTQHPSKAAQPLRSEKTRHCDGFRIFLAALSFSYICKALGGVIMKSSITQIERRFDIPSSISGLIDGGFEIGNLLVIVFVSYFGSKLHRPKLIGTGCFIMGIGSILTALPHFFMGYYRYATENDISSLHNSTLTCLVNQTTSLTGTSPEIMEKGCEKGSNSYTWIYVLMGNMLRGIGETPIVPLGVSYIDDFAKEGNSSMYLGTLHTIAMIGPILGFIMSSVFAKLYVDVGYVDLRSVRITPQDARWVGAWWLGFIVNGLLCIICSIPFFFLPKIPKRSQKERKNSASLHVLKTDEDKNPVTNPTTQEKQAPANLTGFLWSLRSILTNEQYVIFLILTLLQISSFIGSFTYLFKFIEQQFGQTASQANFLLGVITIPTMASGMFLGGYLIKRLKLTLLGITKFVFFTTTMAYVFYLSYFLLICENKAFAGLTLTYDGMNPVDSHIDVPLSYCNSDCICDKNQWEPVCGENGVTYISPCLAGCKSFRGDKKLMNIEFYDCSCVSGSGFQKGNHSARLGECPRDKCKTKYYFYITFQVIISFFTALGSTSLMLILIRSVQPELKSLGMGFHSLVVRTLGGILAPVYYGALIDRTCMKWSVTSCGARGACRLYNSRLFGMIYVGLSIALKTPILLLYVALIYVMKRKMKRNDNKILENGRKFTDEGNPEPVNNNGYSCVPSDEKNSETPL
Nature of the data set: cis-inhibition of mOATP1B2-mediated E1S or TCA uptake in HEK293 cells. In kind it is cell-based. As for the experimental part: Inhibition experiments with mOATP1B2 and rOATP2B1 were carried out in triplicate as cis-inhibition. […] Inhibitory effects were calculated as a percentage of the net-uptake rates. […] The means ± average deviation (AD, for N = 2) were calculated from two experiments on two different days. The significance as a p-value was calculated using Student's t-test in Microsoft Excel.

Data set [2] addresses T2, rOATP1B2 (Rattus norvegicus, UniProt Q9QZX8).
T2 construct: The full-length mOATP1B2 and rOATP1B2 consist of 689 and 678 amino acids
T2 sequence (Q9QZX8 1-687): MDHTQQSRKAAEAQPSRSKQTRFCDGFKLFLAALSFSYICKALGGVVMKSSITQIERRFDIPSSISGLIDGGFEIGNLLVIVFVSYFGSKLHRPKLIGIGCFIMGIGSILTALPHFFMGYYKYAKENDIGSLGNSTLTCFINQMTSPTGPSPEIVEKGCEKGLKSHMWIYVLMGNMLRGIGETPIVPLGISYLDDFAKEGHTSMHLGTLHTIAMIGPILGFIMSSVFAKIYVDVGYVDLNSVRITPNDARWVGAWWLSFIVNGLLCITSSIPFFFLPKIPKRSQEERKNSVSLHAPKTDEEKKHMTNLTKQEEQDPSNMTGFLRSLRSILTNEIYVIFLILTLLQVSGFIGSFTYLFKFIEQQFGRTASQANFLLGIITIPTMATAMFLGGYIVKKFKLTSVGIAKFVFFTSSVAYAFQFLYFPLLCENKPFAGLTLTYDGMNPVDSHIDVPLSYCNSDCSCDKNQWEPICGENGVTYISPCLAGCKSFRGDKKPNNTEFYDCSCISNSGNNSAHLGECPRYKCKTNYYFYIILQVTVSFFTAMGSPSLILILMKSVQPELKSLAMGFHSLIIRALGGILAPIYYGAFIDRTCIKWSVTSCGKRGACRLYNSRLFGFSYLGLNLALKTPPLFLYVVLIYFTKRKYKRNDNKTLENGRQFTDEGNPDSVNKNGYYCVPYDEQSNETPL
As to the kind of experiment: cis-inhibition of rOATP1B2-mediated E1S or TCA uptake in HEK293 cells. In kind it is cell-based.

For data set [3], the target named is T3, hOATP1B1 (Homo sapiens, UniProt Q9Y6L6).
T3 sequence (Q9Y6L6 1-691): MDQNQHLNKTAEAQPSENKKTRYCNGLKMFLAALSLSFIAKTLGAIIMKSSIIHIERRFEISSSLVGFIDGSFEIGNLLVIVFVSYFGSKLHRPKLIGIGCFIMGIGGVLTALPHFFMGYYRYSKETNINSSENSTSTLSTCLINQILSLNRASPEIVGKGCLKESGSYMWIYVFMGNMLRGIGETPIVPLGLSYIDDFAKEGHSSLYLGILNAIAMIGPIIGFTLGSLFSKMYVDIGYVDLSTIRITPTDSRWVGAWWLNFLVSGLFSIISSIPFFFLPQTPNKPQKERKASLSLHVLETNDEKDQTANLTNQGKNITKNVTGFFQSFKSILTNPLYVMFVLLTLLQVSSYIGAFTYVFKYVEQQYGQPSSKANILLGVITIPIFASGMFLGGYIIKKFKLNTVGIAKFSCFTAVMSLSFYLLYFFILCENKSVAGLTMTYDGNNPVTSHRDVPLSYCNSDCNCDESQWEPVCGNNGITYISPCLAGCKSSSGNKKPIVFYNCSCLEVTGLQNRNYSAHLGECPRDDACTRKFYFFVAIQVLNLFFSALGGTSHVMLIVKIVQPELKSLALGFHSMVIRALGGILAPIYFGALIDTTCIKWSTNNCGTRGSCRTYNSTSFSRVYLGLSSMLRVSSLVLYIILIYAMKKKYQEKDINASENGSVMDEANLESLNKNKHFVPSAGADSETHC
As to the kind of experiment: cis-inhibition of hOATP1B1-mediated E1S uptake in HEK293 cells. Type of data set: cell-based. Details: expressed in transfected cells; host or cells: HEK-293, stably transfected. Particulars: 10 µM drug, 0.01 µM [3H]-E1S, 1 min. As to the method:
(§1) Inhibitory effects were calculated as a percentage of the net-uptake rates.
(§2) The means ± average deviation (AD, for N = 2) were calculated from two experiments on two different days. The significance as a p-value was calculated using Student’s t-test in Microsoft Excel.

Data set [4] addresses T4, hOATP1B3 (Homo sapiens, UniProt Q9NPD5).
T4 sequence (Q9NPD5 1-702): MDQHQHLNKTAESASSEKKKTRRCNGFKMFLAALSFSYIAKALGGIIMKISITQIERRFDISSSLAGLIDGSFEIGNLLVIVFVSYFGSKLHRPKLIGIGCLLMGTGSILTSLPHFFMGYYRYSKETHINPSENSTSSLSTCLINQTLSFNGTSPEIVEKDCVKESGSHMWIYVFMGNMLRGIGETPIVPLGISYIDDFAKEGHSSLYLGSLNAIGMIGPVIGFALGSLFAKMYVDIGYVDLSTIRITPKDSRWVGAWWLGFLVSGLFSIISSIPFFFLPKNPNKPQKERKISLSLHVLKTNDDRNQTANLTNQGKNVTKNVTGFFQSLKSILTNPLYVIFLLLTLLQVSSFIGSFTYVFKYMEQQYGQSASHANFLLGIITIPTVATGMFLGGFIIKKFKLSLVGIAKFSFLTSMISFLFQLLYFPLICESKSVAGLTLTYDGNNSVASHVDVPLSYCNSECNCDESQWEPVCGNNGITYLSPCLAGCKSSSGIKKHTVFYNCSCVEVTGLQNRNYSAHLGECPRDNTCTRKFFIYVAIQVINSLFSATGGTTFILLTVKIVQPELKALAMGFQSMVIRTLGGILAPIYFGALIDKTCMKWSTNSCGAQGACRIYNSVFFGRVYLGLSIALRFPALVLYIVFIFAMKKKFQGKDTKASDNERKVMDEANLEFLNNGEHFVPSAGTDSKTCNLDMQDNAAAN
As to the kind of experiment: cis-inhibition of hOATP1B3-mediated TCA uptake in HEK293 cells. In kind it is cell-based. Details: expressed in transfected cells; host or cells: HEK-293, stably transfected. Conditions: 10 µM drug, 1 µM TCA, 10 min. As for the experimental part: as §1, §2

Substrate in data set [5]: C[C@H](CCC(=O)NCCS(=O)(=O)O)[C@H]1CC[C@H]2[C@@H]3[C@H](O)C[C@@H]4C[C@H](O)CC[C@]4(C)[C@H]3C[C@H](O)[C@]12C
As to the kind of experiment: cells, lysate or membranes. Conditions: 1 min, 37 °C, increasing unlabeled substrate with 10 nM 3H-substrate, pH 7.4.

The mark [6] stands for this setting: HEK293, 10 µM drug, 1 µM [3H]-E1S, 1 min, read-out: Inhibitory effect on mOATP1B2-mediated E1S uptake.
Where [7] appears, read: HEK293, read-out: Inhibitory effect on mOATP1B2-mediated TCA uptake, 10 µM drug, 1 µM [3H]-TCA, 1 min.
Where [8] appears, read: HEK293, 10 µM drug, 1 µM [3H]-E1S, 1 min, read-out: Inhibitory effect on rOATP1B2-mediated E1S uptake.
Setting [9] is: HEK293, read-out: Inhibitory effect on rOATP1B2-mediated TCA uptake, 10 µM drug, 1 µM [3H]-TCA, 1 min.
[10] abbreviates: 10 µM drug, substrates E1S and TCA not separated.

For the molecule `CC(C)c1nc(CN(C)C(=O)N[C@H](C(=O)N[C@@H](Cc2ccccc2)C[C@H](O)[C@H](Cc2ccccc2)NC(=O)OCc2cncs2)C(C)C)cs1` [Ritonavir, ritonavir], the inhibition at 10 µM in data set [1] (setting [6]) was 74%; in data set [1] (setting [7]), 71%; in data set [2] (setting [8]), 84%; in data set [2] (setting [9]), 78%; in data set [2] (HEK293, read-out: Inhibitory effect on rOATP1B2-mediated substrate uptake (summary over E1S and TCA), 10 µM drug, substrates E1S and TCA not separated), > 70%.
On to `CCCc1nc(C(C)(C)O)c(C(=O)O)n1Cc1ccc(-c2ccccc2-c2nnn[nH]2)cc1` [Olmesartan, olmesartan], for which the “Inhibitory effect on hOATP1B1-mediated E1S uptake” value is 18% in data set [3] and “less than 50%” in data set [3] (listed as olmesartan). Also, the “Inhibitory effect on hOATP1B3-mediated TCA uptake” value was 29% in data set [4] and “less than 50%” in data set [4] (listed as olmesartan). Also, the “Inhibitory effect on mOATP1B2-mediated substrate uptake (summary over E1S and TCA)” value in data set [1] (setting [10]) is on record as “below 50%”. Besides, the inhibition at 10 µM in data set [1] (setting [6]) came to 18%; in data set [1] (setting [7]), 25%; in data set [2] (setting [8]), 27%; in data set [2] (setting [9]) it was 32%. Further, the “Inhibitory effect on rOATP1B2-mediated substrate uptake (summary over E1S and TCA)” value in data set [2] (setting [10]) is “below 50%”.

B1: rOATP1B2 (Rattus norvegicus) (protein)
chain: T2 sequence (Q9QZX8 1-687)
B1: the Michaelis-Menten constant (Km) in data set [5] (other: rOATP1B2-HEK293, net uptake) came to 16 ± 3 µM.

B2: mOATP1B2 (Mus musculus) (protein)
chain: T1 sequence (Q9JJL3 1-689)
For B2, in data set [5] (other: mOATP1B2-HEK293, net uptake), the Michaelis-Menten constant (Km) is reported as 73 ± 11 µM.
